The target in the assay is T1, human androgen receptor (Homo sapiens, UniProt P10275).
T1 construct: expressed in transfected cells; host or cells: Chinese hamster ovary (CHO) cells, cell line CHO-AR-pMMTV-LUC 1G12-A5-CA
T1 sequence (P10275 1-920): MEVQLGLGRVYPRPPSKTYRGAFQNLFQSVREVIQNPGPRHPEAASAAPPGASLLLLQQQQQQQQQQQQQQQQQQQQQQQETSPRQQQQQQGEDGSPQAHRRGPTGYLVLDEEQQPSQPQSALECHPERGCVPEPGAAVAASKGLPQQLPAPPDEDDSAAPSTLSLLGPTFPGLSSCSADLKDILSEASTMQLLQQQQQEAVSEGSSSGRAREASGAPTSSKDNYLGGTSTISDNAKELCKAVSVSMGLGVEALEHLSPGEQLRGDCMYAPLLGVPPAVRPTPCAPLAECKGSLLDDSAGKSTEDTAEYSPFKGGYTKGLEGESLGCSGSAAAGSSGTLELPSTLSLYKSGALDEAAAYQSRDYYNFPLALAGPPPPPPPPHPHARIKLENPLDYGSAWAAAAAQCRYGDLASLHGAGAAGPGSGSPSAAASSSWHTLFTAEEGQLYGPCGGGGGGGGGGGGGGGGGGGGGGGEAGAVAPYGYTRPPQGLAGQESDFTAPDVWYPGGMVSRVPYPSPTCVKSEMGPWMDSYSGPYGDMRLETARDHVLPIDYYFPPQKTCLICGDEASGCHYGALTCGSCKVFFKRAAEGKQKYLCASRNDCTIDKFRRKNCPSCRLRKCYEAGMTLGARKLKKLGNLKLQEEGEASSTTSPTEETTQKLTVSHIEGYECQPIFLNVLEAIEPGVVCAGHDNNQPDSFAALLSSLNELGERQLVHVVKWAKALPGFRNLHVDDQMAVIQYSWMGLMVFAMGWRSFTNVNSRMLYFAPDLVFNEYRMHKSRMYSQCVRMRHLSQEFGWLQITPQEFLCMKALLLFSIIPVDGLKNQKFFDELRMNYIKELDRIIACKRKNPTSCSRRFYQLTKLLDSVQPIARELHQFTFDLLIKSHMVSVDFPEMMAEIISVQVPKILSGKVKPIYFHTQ
Put plainly: Androgen receptor transactivation assay, antiandrogenic activity: inhibition of transactivation in the presence of 1 nM DHT (CHO-AR-pMMTV-LUC cells; Table 4). The assay is classed as cell-based. The note with it: for Emax: intrinsic activity relative to reference antiandrogen Hydroxyflutamide (set at 100%). The protocol: Compounds were tested for their Androgen Receptor activity in a transactivation assay and in a binding assay.
The (anti-)androgenic activity of test compounds (EC50 and intrinsic activity) was determined in an in vitro bioassay of Chinese hamster ovary (CHO) cells stably transfected with the human androgen receptor expression plasmid and a reporter plasmid in which the MMTV-promoter is linked to the luciferase reporter gene. The cell-line CHO-AR-pMMTV-LUC 1G12-AS-CA is described in Schoonen et al. (2000), Journal of Steroid Biochemistry and Molecular Biology 74(4):213-222. The antiandrogenic activity of a test compound was determined by the inhibition of the transactivation via the androgen receptor of the enzyme luciferase in the presence of 1 nM DHT (5 α-dihydrotestosterone, 17β-hydroxy-5α-androstan-3-one). Intrinsic activity of antiandrogenic activity was determined in the presence of the reference antiandrogen 2-Hydroxy-2-methyl-N-(4-nitro-3-trifluoromethyl-phenyl)-propionamide (Hydroxyflutamide), and set at 100%. For androgenic activity, maximal intrinsic activity in the presence of 100 nM DHT was set at 100%. Table 4 Androgen receptor activity

[1] abbreviates: in the presence of 1 nM DHT, read-out: ant efficacy.
Where [2] appears, read: read-out: ant efficacy, in the presence of 1 nM DHT.

SMILES strings stand for the structures. Where a name gives a salt, the structure may show the parent alone. Read-outs that look alike come from different tables or passages of the source.

As to `COc1ccc2c(Sc3ccccc3[N+](=O)[O-])cn(Cc3cc(F)ccc3F)c2c1` [Compound 1], the Emax under setting [1] is less than 20%.

For the compound `COc1ccc2c(Sc3ccccc3[N+](=O)[O-])cn(Cc3cccc(C)c3F)c2c1` [Compound 2], under setting [1], the Emax is less than 20%.

On to `COc1ccc2c(Sc3ccccc3[N+](=O)[O-])cn(Cc3ccccc3Cl)c2c1` [Compound 3], for which the Emax under setting [1] is less than 20%.

For `COc1ccc2c(Sc3ccccc3[N+](=O)[O-])cn(Cc3ccccc3C#N)c2c1` [Compound 4], under setting [1], the Emax lay in the range of 20 to 50%.

For `COc1ccc2c(Sc3ccccc3[N+](=O)[O-])cn(Cc3ccccc3F)c2c1` [Compound 5], the Emax under setting [1] was less than 20%.

Turning to `COc1ccc2c(Sc3ccccc3[N+](=O)[O-])cn(Cc3cccc([N+](=O)[O-])c3C)c2c1` [Compound 6], the Emax under setting [2] is less than 20%.

On to `COc1ccc2c(Sc3ccccc3[N+](=O)[O-])cn(Cc3ccccc3C)c2c1` [Compound 7], for which the Emax under setting [1] is less than 20%.

In the case of `COc1ccc2c(Sc3ccccc3[N+](=O)[O-])cn(Cc3ccccc3[N+](=O)[O-])c2c1` [Compound 8], the Emax under setting [2] was less than 20%.

On to `COc1ccc2c(Sc3ccccc3[N+](=O)[O-])cn(Cc3ccccn3)c2c1` [Compound 9, 6-Methoxy-3-(2-nitro-phenylsulfanyl)-1-pyridin-2-ylmethyl-1H-indole], for which the Emax under setting [2] was in the range of 20 to 50%.

Take `COc1ccc2c(Sc3ccccc3[N+](=O)[O-])cn(Cc3ccccn3)c2c1` [Compound 10, 6-Methoxy-3-(2-nitro-phenylsulfanyl)-1-pyridin-2 ylmethyl-1H-indole monohydrochloride]: the Emax under setting [1] was less than 20%.

In the case of `COc1ccc2c(Sc3ccccc3[N+](=O)[O-])cn(CC3CCCCO3)c2c1` (stereo not drawn) [Compound 11], under setting [2], the Emax is less than 20%.

For the compound `COc1ccc2c(Sc3ccccc3[N+](=O)[O-])cn(Cc3ccccc3C(F)(F)F)c2c1` [Compound 12], the Emax under setting [1] is less than 20%.

Consider `COc1ccc2c(Sc3ccccc3[N+](=O)[O-])cn(Cc3cc(C)on3)c2c1` [Compound 13], for which, under setting [1], the Emax was less than 20%.

With `COc1ccc2c(Sc3ccccc3[N+](=O)[O-])cn(Cc3ccc(Cl)c(Cl)c3)c2c1` [Compound 14], the Emax under setting [1] was less than 20%.

With `COc1ccc2c(Sc3ccccc3[N+](=O)[O-])cn(Cc3cc(Cl)cc(Cl)c3)c2c1` [Compound 15], the Emax under setting [1] is less than 20%.

As for `COc1ccc2c(Sc3ccccc3CO)cn(Cc3cc(F)cc(F)c3)c2c1` [Compound 16, {2-[1-(3,5-Difluoro-benzyl)-6-methoxy-1H-indol-3-ylsulfanyl]-phenyl}-methanol], the Emax under setting [2] lay within 20 to 50%.

On to `CNC(=O)c1ccccc1Sc1cn(Cc2cc(F)cc(F)c2)c2cc(OC)ccc12` [Compound 17, 2-[1-(3,5-Difluoro-benzyl)-6-methoxy-1H-indol-3-ylsulfanyl]-N-methyl-benzamide], for which the Emax under setting [1] fell in the range of 50 to 80%.

For the compound `COC(=O)c1ccccc1Sc1cn(Cc2cc(F)cc(F)c2)c2cc(OC)ccc12` [Compound 19, 2-[1-(3,5-Difluoro-benzyl)-6-methoxy-1H-indol-3-ylsulfanyl]-benzoic acid methyl ester], the Emax under setting [1] is less than 20%.

With `COc1ccc2c(Sc3ccccc3C#N)cn(Cc3cc(F)cc(F)c3)c2c1` [Compound 20, 2-[1-(3,5-Difluoro-benzyl)-6-methoxy-1H-indol-3-ylsulfanyl]-benzonitrile], the Emax under setting [1] was less than 20%.

With `O=[N+]([O-])c1ccccc1Sc1cn(Cc2cc(F)cc(F)c2)c2cc(Br)ccc12` [Compound 22], the Emax under setting [1] is less than 20%.

On to `O=[N+]([O-])c1ccccc1Sc1cn(Cc2cc(F)cc(F)c2)c2cc(C(F)(F)F)ccc12` [Compound 23], for which the Emax under setting [1] was less than 20%.

As to `O=[N+]([O-])c1ccccc1Sc1cn(Cc2cc(F)cc(F)c2)c2cc(CO)ccc12` [Compound 24], under setting [1], the Emax was less than 20%.

For the compound `O=[N+]([O-])c1ccccc1Sc1cn(Cc2cc(F)cc(F)c2)c2cc(Cl)ccc12` [Compound 25], under setting [1], the Emax is less than 20%.

Turning to `N#Cc1ccc2c(Sc3ccccc3[N+](=O)[O-])cn(Cc3cc(F)cc(F)c3)c2c1` [Compound 26, 1-(3,5-Difluoro-benzyl)-3-(2-nitro-phenylsulfanyl)-1H-indole-6-carbonitrile], under setting [1], the Emax was less than 20%.

Take `O=C(c1ccc2c(Sc3ccccc3[N+](=O)[O-])cn(Cc3cc(F)cc(F)c3)c2c1)N1CCCC1` [Compound 27]: the Emax under setting [1] is less than 20%.

For the compound `O=C(c1ccc2c(Sc3ccccc3[N+](=O)[O-])cn(Cc3cc(F)cc(F)c3)c2c1)N1CCOCC1` [Compound 28], the Emax under setting [1] is less than 20%.

Take `CN1CCN(C(=O)c2ccc3c(Sc4ccccc4[N+](=O)[O-])cn(Cc4cc(F)cc(F)c4)c3c2)CC1` [Compound 29]: the Emax under setting [1] is less than 20%.

On to `O=C(O)c1ccc2c(Sc3ccccc3[N+](=O)[O-])cn(Cc3cc(F)cc(F)c3)c2c1` [Compound 30, 1-(3,5-Difluoro-benzyl)-3-(2-nitro-phenylsulfanyl)-1H-indole-6-carboxylic acid], for which the Emax under setting [1] is less than 20%.

`COC(=O)c1ccc2c(Sc3ccccc3[N+](=O)[O-])cn(Cc3cc(F)cc(F)c3)c2c1` [Compound 31, 1-(3,5-Difluoro-benzyl)-3-(2-nitro-phenylsulfanyl)-1H-indole-6-carboxylic acid methyl ester]: the Emax under setting [1] is less than 20%.

Regarding `CCN(CC)C(=O)c1ccc2c(Sc3ccccc3[N+](=O)[O-])cn(Cc3cc(F)cc(F)c3)c2c1` [Compound 32], the Emax under setting [2] lay within 20 to 50%.

`NC(=O)c1ccc2c(Sc3ccccc3[N+](=O)[O-])cn(Cc3cc(F)cc(F)c3)c2c1` [Compound 33, 1-(3,5-Difluoro-benzyl)-3-(2-nitro-phenylsulfanyl)-1H-indole-6-carboxylic acid amide]: the Emax under setting [1] is less than 20%.

Turning to `O=C(NCc1ccco1)c1ccc2c(Sc3ccccc3[N+](=O)[O-])cn(Cc3cc(F)cc(F)c3)c2c1` [Compound 34], the Emax under setting [1] was less than 20%.

As for `O=C(NCc1cccnc1)c1ccc2c(Sc3ccccc3[N+](=O)[O-])cn(Cc3cc(F)cc(F)c3)c2c1` [Compound 35], the Emax under setting [1] is less than 20%.

In the case of `CN(C)CCNC(=O)c1ccc2c(Sc3ccccc3[N+](=O)[O-])cn(Cc3cc(F)cc(F)c3)c2c1` [Compound 36], the Emax under setting [1] was less than 20%.

In the case of `O=C(NCCO)c1ccc2c(Sc3ccccc3[N+](=O)[O-])cn(Cc3cc(F)cc(F)c3)c2c1` [Compound 37], the Emax under setting [1] was less than 20%.

For the compound `COCCNC(=O)c1ccc2c(Sc3ccccc3[N+](=O)[O-])cn(Cc3cc(F)cc(F)c3)c2c1` [Compound 38], the Emax under setting [1] is less than 20%.

For the compound `COC(=O)CNC(=O)c1ccc2c(Sc3ccccc3[N+](=O)[O-])cn(Cc3cc(F)cc(F)c3)c2c1` [Compound 39], under setting [1], the Emax is less than 20%.

For the compound `CN(C)C(=O)CNC(=O)c1ccc2c(Sc3ccccc3[N+](=O)[O-])cn(Cc3cc(F)cc(F)c3)c2c1` [Compound 40], the Emax under setting [1] is less than 20%.

Regarding `O=C(NCC1CC1)c1ccc2c(Sc3ccccc3[N+](=O)[O-])cn(Cc3cc(F)cc(F)c3)c2c1` [Compound 41], the Emax under setting [1] was less than 20%.

On to `CC(C)CNC(=O)c1ccc2c(Sc3ccccc3[N+](=O)[O-])cn(Cc3cc(F)cc(F)c3)c2c1` [Compound 42], for which the Emax under setting [1] is less than 20%.

Regarding `O=C(NCc1ccccc1)c1ccc2c(Sc3ccccc3[N+](=O)[O-])cn(Cc3cc(F)cc(F)c3)c2c1` [Compound 43], the Emax under setting [2] lay within 20 to 50%.

In the case of `O=C(NC1CC1)c1ccc2c(Sc3ccccc3[N+](=O)[O-])cn(Cc3cc(F)cc(F)c3)c2c1` [Compound 44], the Emax under setting [1] was less than 20%.

Take `CCNC(=O)c1ccc2c(Sc3ccccc3[N+](=O)[O-])cn(Cc3cc(F)cc(F)c3)c2c1` [Compound 45]: under setting [1], the Emax is less than 20%.

By EC50 is commonly meant the concentration needed to bring the measured effect to its halfway point. As for `CC(C)NC(=O)c1ccc2c(Sc3ccccc3[N+](=O)[O-])cn(Cc3cc(F)cc(F)c3)c2c1` [Compound 46], for the setting “antiandrogenic activity, in the presence of 1 nM DHT, read-out: ant EC50”, the EC50 was greater than 10 µM. In addition, the Emax under setting [2] lay in the range of 20 to 50%.

(Values after patent EP1585727B1, “INDOLES USEFUL IN THE TREATMENT OF ANDROGEN-RECEPTOR RELATED DISEASES” (priority 2002, dated 2004).)
